Results reported in patent US11072592B2, “Small molecules that enable cartilage rejuvenation” (The Regents of the University of California, priority 2015, dated 2021).
Entries after “also recorded” stand apart in the source; their conditions may differ.

How the values were obtained:
[1] = tested on: adult pig articular cartilage explants; experiment: Proliferation (EdU) and marker expression in adult articular cartilage explants; type: cell-based
Procedure: FIGS. 26A-26J. LIF/STAT3/MYC signaling is prominent in fetal articular chondrocytes and can activate a fetal-like phenotype in adult cells. (FIG. 26A) Levels of phospho-STAT3 (pSTAT3) and MYC protein were quantitated in human fetal and adult articular chondrocytes relative to histone H3. (FIG. 26B) Effects of soluble LIF receptor (sLIFR) on MYC and pSTAT3 protein levels on fetal articular chondrocytes after 72 hours. (FIG. 26C) Detection of apoptotic cells using TUNEL staining and flow cytometry analysis of fetal articular cartilage explants cultured in the absence (control) or presence of a MYC (10058-F4) or STAT3 (STATTIC) inhibitor for 24 hours. (FIG. 26D) Quantification of proliferating cells via EdU incorporation in fetal articular cartilage explants and also by flow cytometry analysis for BrdU. Scale bars represent 100 μm. (FIG. 26E) Assessment of metabolic activity of human fetal articular chondrocytes cultured in the presence or absence of MYC or STAT3 inhibitors. (FIG. 26F) Migration capacity of fetal articular chondrocytes was assessed using a Transwell® assay in the absence or presence of MYC and STAT3 inhibitors. (FIG. 26G) Protein levels of MYC and pSTAT3 were measured in adult human articular chondrocytes with and without incubation with LIF. Data are shown normalized to histone H3. (FIG. 26H) Migratory capacity of adult human articular chondrocytes in a Transwell® assay measured in the presence or absence of LIF. (FIG. 26I) Single adult human articular chondrocytes were cultured with or without LIF for 5 weeks to allow detection of colony-forming cells. […]
FIGS. 28A-28I. […] (FIG. 28A) Adult human articular chondrocytes were incubated with or without RCGD 423 and levels of MYC and pSTAT3 were quantified relative to histone H3. (FIG. 28B) Levels of MYC and pSTAT3 protein were measured in pig adult articular chondrocytes to determine the effects of RCGD 423 in a dose- and time-dependent manner; histone H3 was used as a loading control. (FIG. 28C) Migration of adult human articular chondrocytes in a Transwell® assay was assessed in the presence and absence of RCGD 423. […]

[2] = tested on: MAPK, AKT, NF-κB pathways; experiment: Western blot of MAPK, AKT and NF-κB signaling in adult pig articular chondrocytes; type: cell-based; conditions: 24 hours
Procedure: FIGS. 30A-30B. […] (FIG. 30A) Adult pig articular chondrocytes were cultured for 24 hours with the indicated cytokines or RCGD 423 and the levels of pSTAT3 and MYC were measured with respect to histone H3. Representative data for other proteins in the MAPK (p38 and MEK1/2), AKT (phospho-AKT; pAKT) or NF-KB (NF-KB p65) are also shown. (FIG. 30B) Levels of transcription of genes indicative of a catabolic response were determined via quantitative PCR in adult pig articular chondrocytes treated with OSM, IL-6, TNF-α, LIF or RCGD 423. Data are represented at mean±SD.
Cartilage degeneration is generally considered a feed-forward process, in which small losses of chondrocytes result in microenvironmental changes including induction of an inflammatory response and other pro-catabolic events (Hunziker, 2002). In turn, these alterations in the joint milieu promote production of matrix degrading proteins including MMPs (collagenases) and proteins of the ADAMTS family (aggrecanases). LIF has been implicated in promoting this cycle of matrix destruction during the pathogenesis of osteoarthritis (Hui et al., 2000; Lotz et al., 1992), although its role in this process has been controversial. In order to better understand the mechanism of action of LIF, RCGD 423 and known pro-inflammatory cytokines in the promotion of degeneration, we stimulated adult pig articular chondrocytes with these molecules and quantitated the levels of activated downstream proteins that mediate the cellular signaling response (FIG. 30A).
Treated and non-treated ells were lysed in RIPA Lysis and Extraction Buffer (Pierce, Rockford, Ill.) containing protease inhibitors (Pierce) followed by sonication with a 15-second pulse at a power output of 2 using the VirSonic 100 (SP Industries Company, Warminster, Pa.). Protein concentrations were determined by BCA protein assay (Pierce). Proteins were resolved with SDS-PAGE utilizing 4-15% Mini-PROTEAN TGX Precast Gels and transferred to Trans-Blot Turbo Transfer Packs with a 0.2-μm pore-size nitrocellulose membrane. The SDS-PAGE running buffer, 4-15% Mini-PROTEAN TGX Precast Gels, Trans-Blot Turbo Transfer Packs with a 0.2-μm pore-size nitrocellulose membrane were purchased from Biorad (Hercules, Calif.). Nitrocellulose membranes were blocked in 5% nonfat milk in 0.05% (v/v) Tween 20 (PBST) (Corning, Manassas, Va.). Membranes were then incubated with primary antibodies phospho-STAT3 (#9131), MYC (#5605), NF-κB p65 (#D14E12), pAKT (#9272) Histone 3 (#9715) from Cell Signaling, (Danvers, Mass.); MEK1/2 (ab70613) and p38 (ab795) from Abcam (Cambridge, Mass.) overnight. After washing in PBS containing 0.05% (v/v) Tween 20 (PBST), membranes were incubated with Goat anti-Rabbit IgG (H+L) Secondary Antibody (Thermo Scientific Rockford, Ill.). After washing, membranes were developed with the Clarity Western ECL Blotting Substrate (Hercules, Calif.).

Row | Molecule | proliferation of chondrocytes in adult cartilage explants (EdU) [1] | NF-κB protein [2] | activation of AKT [2] | activation of the MAPK pathway [2] | expression of the stem/progenitor cell marker ALDH 1A1 in the surface layer ([1]; adult pig cartilage explants, LIF 50 ng/mL for 3 days)
1 | Brc1ccc(Nc2nc(-c3ccccc3)cs2)cc1 [RCGD 423, N-(4-Bromophenyl)-4-phenyl-1,3-thiazol-2-amine] | increased | did not activate AKT or stabilize | did not activate; also recorded: no activation | weakly activating | –
2 | LIF: interleukin 6 (IL-6)-class cytokine | stimulated proliferation; also recorded: significantly increased | – | stimulated the activation; also recorded: strong activation | weaker response | increased expression
